How the values were obtained:
[1] = test system: L02 cells; assay: Effects of the drugs on L02 cells (Figure S1C); assay type: cell-based, human; settings: 0.3–10 μmol/L
Procedure: FIGURE S1 (A) Chemical structural formulae of CS17919 and GS-4997. (B) Viability of L02 cells 72 h after 25–800 μmol/L (2-fold dilution) PA stimulation. (C) The effects of CS17919 and GS-4997 at different doses (0.3–10 μmol/L) on L02 cells. (D) Kidney weights in the UUO model. (E) Renal coefficients in the DKD model. (F) Urine ALB in the DKD model. (G) Liver weights in the NASH model. *: PA vs. Blank; GS-4997 vs. DMSO; Treatment vs. Model. #: CS17919 vs. DMSO; Control vs. Model. * p < 0.05, ## p < 0.01, *** p < 0.001, #### and **** p < 0.0001 were obtained by one-way ANOVA.

[2] = target: CYP 1A2 (Homo sapiens, UniProt P05177)
Sequence of CYP 1A2 (P05177 whole entry): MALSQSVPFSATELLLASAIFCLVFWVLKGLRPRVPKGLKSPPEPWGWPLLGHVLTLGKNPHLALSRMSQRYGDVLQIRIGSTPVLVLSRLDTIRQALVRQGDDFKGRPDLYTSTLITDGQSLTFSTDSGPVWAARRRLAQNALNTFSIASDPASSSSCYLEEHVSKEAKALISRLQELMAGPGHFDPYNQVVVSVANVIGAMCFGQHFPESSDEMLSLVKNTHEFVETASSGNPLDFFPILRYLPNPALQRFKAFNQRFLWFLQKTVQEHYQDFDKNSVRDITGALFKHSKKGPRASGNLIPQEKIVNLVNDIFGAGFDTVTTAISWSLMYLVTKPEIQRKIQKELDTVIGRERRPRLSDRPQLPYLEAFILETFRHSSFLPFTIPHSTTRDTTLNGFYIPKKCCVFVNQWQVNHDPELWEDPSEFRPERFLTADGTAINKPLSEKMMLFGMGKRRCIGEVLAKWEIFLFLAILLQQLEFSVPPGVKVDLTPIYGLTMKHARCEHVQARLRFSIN

[3] = Pharmacokinetic study in mice, oral; assay type: in vivo, C57BL/6J mice; settings: mouse plasma, mean ± SD, n = 3
Procedure: Male C57BL/6J mice (Beijing Huafukang Biotechnology Co., Ltd, Beijing, China) were selected at 6–8 weeks for the experiment. […] About 50–60 μL of blood and tissue were isolated in anticoagulation tubes at 15, 30 min, 1, 2, 4, 6, and 8 h after administration, respectively, and then centrifuged at 5000 r/min for 7 min at 4°C. […] The standard solution was prepared with 7 concentrations and QC with 3. The standard and QC working solutions were added to the 96‐well plate, and the protein was precipitated by adding acetonitrile solution containing the internal standard together with the sample to be tested. After shaking for 10 min and centrifugation at 12 000 × g for 10 min, the supernatants from the 96‐well plate were analyzed by LC–MS (mobile phase: 0.1% formic acid‐water 0.1% formic acid‐acetonitrile). Raw data were imported into Phoenix WinNonlin to calculate AUC, C max, T 1/2, etc.

[4] = test system: HEK‐293A; assay: MTS cytotoxicity assay, HEK-293A; assay type: cell-based, human; settings: 72 h
Procedure: (§1) Human embryonic kidney cells (HEK‐293A), human hepatocellular carcinoma cells (HUH7), human embryonic liver diploid cells (CCC‐HEL‐1) and human embryonic lung cells (MRC‐5) were selected for the cytotoxicity study of both drugs, using the MTS assay protocol. Cells were cultured at 37°C with 5% CO2 using an appropriate medium. For the assay, the cells were evenly distributed at 1E4 cells/well in 96‐well plates, and then CS17919 or GS‐4997 was added to the plates in a dose‐dependent manner (3‐fold dilution from 100 μmol/L). After 72 h of incubation, 30 μL of MTS solution was added to each well, and the cells were then incubated for 2–4 h in the dark. The absorbance value of each well at 490 nm was measured using an enzymatic plate reader and the IC50 for each drug and each cell line was calculated. Cell viability and cytoxicity experiments were repeated three times.

[5] = target: CYP 2B6 (Homo sapiens, UniProt P20813); assay: CYP inhibition in vitro; assay type: in vitro ADME
Sequence of CYP 2B6 (P20813 whole entry): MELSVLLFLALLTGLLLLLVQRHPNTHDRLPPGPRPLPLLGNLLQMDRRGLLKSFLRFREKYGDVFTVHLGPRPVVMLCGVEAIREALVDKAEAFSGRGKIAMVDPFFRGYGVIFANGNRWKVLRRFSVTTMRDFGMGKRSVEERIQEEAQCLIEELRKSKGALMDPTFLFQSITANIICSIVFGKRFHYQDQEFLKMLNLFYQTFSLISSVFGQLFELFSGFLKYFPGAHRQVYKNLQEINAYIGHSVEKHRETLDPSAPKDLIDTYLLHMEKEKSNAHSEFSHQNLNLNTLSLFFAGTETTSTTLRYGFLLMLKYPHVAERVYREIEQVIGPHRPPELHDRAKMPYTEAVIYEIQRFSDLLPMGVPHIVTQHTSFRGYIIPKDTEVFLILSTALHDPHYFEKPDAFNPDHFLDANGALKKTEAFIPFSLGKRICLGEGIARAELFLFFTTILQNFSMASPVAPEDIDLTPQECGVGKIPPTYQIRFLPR

[6] = Metabolic stability in liver microsomes; assay type: in vitro ADME; settings: Human
[7] = target: CYP3A4 (Homo sapiens, UniProt P08684); assay: CYP inhibition in vitro; settings: read-out: CYP3A4 (Midazolam) inhibition IC50; substrate Midazolam
Sequence of CYP3A4 (P08684 whole entry): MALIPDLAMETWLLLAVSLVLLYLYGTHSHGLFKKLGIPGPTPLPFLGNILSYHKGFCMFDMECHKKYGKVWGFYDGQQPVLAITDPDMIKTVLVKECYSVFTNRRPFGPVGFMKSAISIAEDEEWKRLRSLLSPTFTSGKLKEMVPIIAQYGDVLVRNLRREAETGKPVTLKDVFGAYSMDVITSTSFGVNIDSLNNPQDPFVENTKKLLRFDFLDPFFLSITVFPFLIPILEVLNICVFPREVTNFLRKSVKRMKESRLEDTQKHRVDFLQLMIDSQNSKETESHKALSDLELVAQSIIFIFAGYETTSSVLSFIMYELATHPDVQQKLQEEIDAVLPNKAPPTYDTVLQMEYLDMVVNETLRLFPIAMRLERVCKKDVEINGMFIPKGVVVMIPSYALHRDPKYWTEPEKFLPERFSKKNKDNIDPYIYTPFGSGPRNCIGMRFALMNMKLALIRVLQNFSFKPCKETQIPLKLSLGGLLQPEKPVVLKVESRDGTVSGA

[8] = target: CYP 2D6 (Homo sapiens, UniProt P10635); assay: CYP inhibition in vitro; assay type: in vitro ADME
Sequence of CYP 2D6 (P10635 whole entry): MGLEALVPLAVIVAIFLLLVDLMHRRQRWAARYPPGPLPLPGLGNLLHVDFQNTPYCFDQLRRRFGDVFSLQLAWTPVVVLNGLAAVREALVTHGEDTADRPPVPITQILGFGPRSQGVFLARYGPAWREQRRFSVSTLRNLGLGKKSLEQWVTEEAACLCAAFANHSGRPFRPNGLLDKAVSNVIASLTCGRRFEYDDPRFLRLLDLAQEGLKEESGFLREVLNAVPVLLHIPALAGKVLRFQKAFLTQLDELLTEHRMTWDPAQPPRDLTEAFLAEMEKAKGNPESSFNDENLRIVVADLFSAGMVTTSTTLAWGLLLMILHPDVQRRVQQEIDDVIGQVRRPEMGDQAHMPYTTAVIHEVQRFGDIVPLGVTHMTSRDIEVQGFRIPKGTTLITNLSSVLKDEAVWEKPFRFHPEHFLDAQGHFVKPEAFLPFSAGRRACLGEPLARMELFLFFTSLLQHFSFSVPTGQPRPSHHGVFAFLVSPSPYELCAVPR

[9] = Tissue distribution in mice, oral; assay type: in vivo, C57BL/6J mice; settings: 20 mg/kg gavage
Procedure: Male C57BL/6J mice at 6–8 weeks (Beijing Huafukang Biotechnology Co., Ltd) were also selected for tissue distribution studies. Mice were gavage‐administered at 20 mg/kg and anesthetized at 1, 2, 4, and 8 h after administration for tissue collection, including whole blood, heart, liver, kidney, and brain. These organs were homogenized using a tissue homogenizer and analyzed together with the plasma according to the standard LC/MS procedure.

[10] = test system: MRC‐5; assay: MTS cytotoxicity assay, MRC-5; assay type: cell-based, human; settings: 72 h
Procedure: as §1, with “For the assay, the cells were evenly distributed at 1E4 cells/well in 96‐well plates, and then CS17919 or GS‐4997 was added to the plates in a dose‐dependent manner (3‐fold dilution from 100 μmol/L).” left out

Q: For `Cc1cc(F)c(C(=O)Nc2cccc(-c3nncn3[C@H](C)C(F)(F)F)n2)cc1NC(=O)C1CC1` [CS17919], which “Safety in L02 cells” value [1] is on record?
A: safer than GS‐4997

Q: What about the IC50 [2] of the same compound?
A: > 10 µM

Q: And the Cmax ([3]; 20 mg/kg p.o.)?
A: 4039 ± 646.90 ng/mL

Q: And the “MRT0–∞” value ([3]; 20 mg/kg p.o.)?
A: 3.96 ± 0.91 h

Q: And the “T 1/2” value ([3]; 20 mg/kg p.o.)?
A: 2.20 ± 0.74 h

Q: What about the T max ([3]; 20 mg/kg p.o.) of the same compound?
A: 1.50 ± 0.87 h

Q: And the Cmax ([3]; 50 mg/kg p.o.)?
A: 5741 ± 1835 ng/mL

Q: What about the “MRT0–∞” value ([3]; 50 mg/kg p.o.) of the same compound?
A: 6.43 ± 1.44 h

Q: And the “T 1/2” value ([3]; 50 mg/kg p.o.)?
A: 3.50 ± 1.86 h

Q: What about the T max ([3]; 50 mg/kg p.o.) of the same compound?
A: 2.00 ± 0 h

Q: And the “Cytotoxicity (cell viability)” value [4]?
A: barely affected cell viability

Q: What about the IC50 [5] of the same compound?
A: > 10 µM

Q: And the “T1/2 in liver microsomes” value [6]?
A: >145 min

Q: And the IC50 [7]?
A: 3.02 µM

Q: And the IC50 [8]?
A: > 10 µM

Q: And the Tissue accumulation [9]?
A: tissue‐specific accumulation of CS17919 in the liver and kidney

Q: What about the Brain concentration ([9]; 1 h, mean ± SD, n = 3) of the same compound?
A: 30.42 ± 6.82 ng/g

Q: And the Heart concentration ([9]; 1 h, mean ± SD, n = 3)?
A: 1330.94 ± 384.66 ng/g

Q: And the Kidney concentration ([9]; 1 h, mean ± SD, n = 3)?
A: 4353.18 ± 260.20 ng/g

Q: And the Liver concentration ([9]; 1 h, mean ± SD, n = 3)?
A: 8933.89 ± 456.44 ng/g

Q: What about the Plasma concentration ([9]; 1 h, mean ± SD, n = 3) of the same compound?
A: 3104.56 ± 474.21 ng/mL

Q: What about the Brain concentration ([9]; 2 h, mean ± SD, n = 3) of the same compound?
A: 7.37 ± 1.98 ng/g

Q: What about the Heart concentration ([9]; 2 h, mean ± SD, n = 3) of the same compound?
A: 918.02 ± 156.73 ng/g

Q: And the Kidney concentration ([9]; 2 h, mean ± SD, n = 3)?
A: 2751.58 ± 252.41 ng/g

Q: And the Liver concentration ([9]; 2 h, mean ± SD, n = 3)?
A: 5322.41 ± 114.54 ng/g

Q: And the Plasma concentration ([9]; 2 h, mean ± SD, n = 3)?
A: 2737.71 ± 208.45 ng/mL

Q: What about the Brain concentration ([9]; 4 h, mean ± SD, n = 3) of the same compound?
A: 8.28 ± 4.78 ng/g

Q: What about the Heart concentration ([9]; 4 h, mean ± SD, n = 3) of the same compound?
A: 338.03 ± 97.76 ng/g

Q: And the Kidney concentration ([9]; 4 h, mean ± SD, n = 3)?
A: 1173.69 ± 135.53 ng/g

Q: What about the Liver concentration ([9]; 4 h, mean ± SD, n = 3) of the same compound?
A: 2371.88 ± 421.50 ng/g

Q: What about the Plasma concentration ([9]; 4 h, mean ± SD, n = 3) of the same compound?
A: 1444.51 ± 155.53 ng/mL

Q: What about the Heart concentration ([9]; 8 h, mean ± SD, n = 3) of the same compound?
A: 256.60 ± 117.57 ng/g

Q: And the Kidney concentration ([9]; 8 h, mean ± SD, n = 3)?
A: 993.13 ± 136.67 ng/g

Q: And the Liver concentration ([9]; 8 h, mean ± SD, n = 3)?
A: 1939.43 ± 337.32 ng/g

Q: What about the Plasma concentration ([9]; 8 h, mean ± SD, n = 3) of the same compound?
A: 856.1 ± 332.34 ng/mL

Q: What about the Brain concentration ([9]; 8 h, LLOQ 1 ng/g) of the same compound?
A: LLOQ (<1) ng/g

Q: And the “Cytotoxicity (cell viability)” value [10]?
A: barely affected cell viability
